Measurements: US20230141603A1, “BENZODIAZEPINE DERIVATIVES AS GABA A GAMMA1 PAM” (Hoffmann-La Roche Inc., priority 2021, published 2023)

What was measured:
[1] = biological target: T1, h-GABAA α1β3γ2 (Homo sapiens, UniProt P14867+P18507); assay: Radioligand binding assay, [3H]Flumazenil competition, HEK293F membranes; settings: for γ2/γ1 Selectivity Ratio: Ki α1β3γ2 (nM)/Ki α2β2γ1 (nM); for LogSel: Log[Ki α1β3γ2 (nM)/Ki α2β2γ1 (nM)]
T1 construct: expressed in transfected cells; host or cells: HEK293F cells, membranes
In short: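 [3H]Flumazenil competition binding on membranes from HEK293F cells transiently expressing human α1β3γ2 receptors. Incubation to equilibrium for 1 h at 4 °C, then filtration and scintillation counting. Ki is the mean of two determinations.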

[2] = biological target: T2, h-GABAA α2β2γ1 (Homo sapiens, UniProt P47869+Q8N1C3); assay: Two-electrode voltage clamp electrophysiology in Xenopus oocytes, modulation of GABA EC20 current; assay type: cell-based; parameters: host or cells: Xenopus laevis oocytes, RNA micro-injection; settings: Table 2; for Efficacy (GABA)%: % modulation of GABA EC20 = 100*(Fold increase−1), compound at approx. 30-fold Ki; for Fold increase h-GABA-A α2β2γ1 oocyte @ 30-fold Ki: compound at approx. 30-fold its Ki α2β2γ1, GABA EC20, Xenopus oocytes
T2 sequence (P47869 29-451): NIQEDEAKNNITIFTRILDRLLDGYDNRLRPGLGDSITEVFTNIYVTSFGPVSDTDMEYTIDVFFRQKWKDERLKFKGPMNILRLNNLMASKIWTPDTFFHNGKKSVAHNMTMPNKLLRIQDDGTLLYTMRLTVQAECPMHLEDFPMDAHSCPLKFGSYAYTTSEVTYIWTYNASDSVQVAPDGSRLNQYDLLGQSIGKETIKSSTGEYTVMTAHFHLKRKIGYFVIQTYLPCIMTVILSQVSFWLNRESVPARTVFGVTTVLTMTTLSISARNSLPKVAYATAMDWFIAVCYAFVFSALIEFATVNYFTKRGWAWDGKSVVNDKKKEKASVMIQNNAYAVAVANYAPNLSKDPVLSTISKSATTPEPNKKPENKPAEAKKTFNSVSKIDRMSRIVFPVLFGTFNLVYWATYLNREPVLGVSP
T2 sequence (P47870 25-512 partner limits assumed): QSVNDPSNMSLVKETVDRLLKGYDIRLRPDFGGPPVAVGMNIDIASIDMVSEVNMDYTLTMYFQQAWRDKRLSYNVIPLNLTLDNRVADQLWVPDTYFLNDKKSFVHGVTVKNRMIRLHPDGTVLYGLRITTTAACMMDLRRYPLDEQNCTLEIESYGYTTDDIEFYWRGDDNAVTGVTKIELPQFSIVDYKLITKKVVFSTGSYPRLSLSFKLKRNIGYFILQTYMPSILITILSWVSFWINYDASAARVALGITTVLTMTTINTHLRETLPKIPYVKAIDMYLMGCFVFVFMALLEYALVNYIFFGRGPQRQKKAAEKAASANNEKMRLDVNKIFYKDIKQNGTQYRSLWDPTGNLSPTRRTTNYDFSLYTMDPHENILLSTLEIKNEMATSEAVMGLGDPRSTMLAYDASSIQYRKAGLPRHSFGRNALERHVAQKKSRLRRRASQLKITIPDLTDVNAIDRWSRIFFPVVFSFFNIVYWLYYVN
T2 sequence (Q8N1C3 36-465): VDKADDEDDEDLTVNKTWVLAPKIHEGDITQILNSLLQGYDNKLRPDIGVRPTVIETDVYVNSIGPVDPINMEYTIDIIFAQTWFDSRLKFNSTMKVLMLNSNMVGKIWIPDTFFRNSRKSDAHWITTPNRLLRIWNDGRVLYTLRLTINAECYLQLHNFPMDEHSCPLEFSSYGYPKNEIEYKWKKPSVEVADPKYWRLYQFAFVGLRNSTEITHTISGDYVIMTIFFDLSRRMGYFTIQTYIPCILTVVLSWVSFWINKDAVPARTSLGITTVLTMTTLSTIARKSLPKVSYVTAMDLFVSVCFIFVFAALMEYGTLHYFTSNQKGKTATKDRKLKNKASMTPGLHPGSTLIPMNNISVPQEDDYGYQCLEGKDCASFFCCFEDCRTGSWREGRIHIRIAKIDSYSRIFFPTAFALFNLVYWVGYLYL
In short: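 Oocytes injected with receptor subunit mRNA were recorded 3–5 days later by two-electrode voltage clamp at −80 mV, room temperature, pH 7.4. Compound was applied during a second GABA EC20 pulse, with at least 3 oocytes per concentration. Efficacy is the ratio-trace extremum, expressed as % modulation of GABA EC20.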

| Structure (SMILES) | Ki [1] [nM] | γ2/γ1 Selectivity Ratio ([1]; Table 1) | LogSel ([1]; Table 1) | Efficacy (GABA)% [2] [%] | Fold increase h-GABA-A α2β2γ1 oocyte @ 30-fold Ki [2] | γ2/γ1 Selectivity Ratio ([1]; Table 3) | LogSel ([1]; Table 3) |
| --- | --- | --- | --- | --- | --- | --- | --- |
| Cl.NCc1nnc2n1-c1ccc(Br)c(Cl)c1C(c1c(F)cccc1F)=NC2 [Example 36, [8-bromo-7-chloro-6-(2,6-difluorophenyl)-4H-[1,2,4]triazolo[4,3-a][1,4]benzodiazepin-1-yl]methanamine hydrochloride] | 180 | 21.2 | 1.33 | 33 | 1.33 | – | – |
| Fc1cccc(F)c1C1=NCc2nncn2-c2ccc(C(F)(F)F)c(Cl)c21 [Example 37, 7-chloro-6-(2,6-difluorophenyl)-8-(trifluoromethyl)-4H-[1,2,4]triazolo[4,3-a][1,4]benzodiazepine] | 1180 | 28.5 | 1.45 | 67 | 1.67 | – | – |
| Fc1cccc(F)c1C1=NCc2nnc(-c3cccnn3)n2-c2ccc(C(F)(F)F)c(Cl)c21 [Example 38, 7-chloro-6-(2,6-difluorophenyl)-1-pyridazin-3-yl-8-(trifluoromethyl)-4H-[1,2,4]triazolo[4,3-a][1,4]benzodiazepine] | 1430 | 113.4 | 2.05 | 114 | 2.14 | – | – |
| Fc1cccc(F)c1C1=NCc2nnc(-c3cccnn3)n2-c2ccc(I)c(Cl)c21 [Example 39, 7-chloro-6-(2,6-difluorophenyl)-8-iodo-1-pyridazin-3-yl-4H-[1,2,4]triazolo[4,3-a][1,4]benzodiazepine] | 360 | 85.8 | 1.93 | 133 | 2.33 | – | – |
| Cc1nnc2n1-c1ccc(C(F)(F)F)c(Cl)c1C(c1c(F)cccc1F)=NC2 [Example 40, 7-chloro-6-(2,6-difluorophenyl)-1-methyl-8-(trifluoromethyl)-4H-[1,2,4]triazolo[4,3-a][1,4]benzodiazepine] | 1010 | 37.5 | 1.57 | 75 | 1.75 | 37.5 | 1.6 |
| Cc1nnc2n1-c1ccc(I)c(Cl)c1C(c1c(F)cccc1F)=NC2 [Example 41, 7-chloro-6-(2,6-difluorophenyl)-8-iodo-1-methyl-4H-[1,2,4]triazolo[4,3-a][1,4]benzodiazepine] | 121 | 21.9 | 1.34 | 70 | 1.70 | – | – |
| Fc1cccc(F)c1C1=NCc2nnc(-c3cccnn3)n2-c2ccc(Br)c(Br)c21 [Example 42, 7,8-dibromo-6-(2,6-difluorophenyl)-1-pyridazin-3-yl-4H-[1,2,4]triazolo[4,3-a][1,4]benzodiazepine] | 243 | 44.2 | 1.65 | 97 | 1.97 | – | – |
| Fc1cccc(F)c1C1=NCc2nnc(-c3ccncn3)n2-c2ccc(Br)c(Br)c21 [Example 43, 7,8-dibromo-6-(2,6-difluorophenyl)-1-pyrimidin-4-yl-4H-[1,2,4]triazolo[4,3-a][1,4]benzodiazepine] | 510 | 88.5 | 1.95 | 23 | 1.23 | – | – |
| Clc1cccnc1C1=NCc2nnc(-c3ccncn3)n2-c2ccc(Br)c(Cl)c21 [Example 44, 8-bromo-7-chloro-6-(3-chloro-2-pyridyl)-1-pyrimidin-4-yl-4H-[1,2,4]triazolo[4,3-a][1,4]benzodiazepine] | 276 | 28.6 | 1.46 | 62 | 1.62 | – | – |
